The data set in a line: Amorphous content / crystalline disorder by isothermal calorimetry (IC TAM 3). The data set is classed as physicochemical. To be noted: ursolic acid, five repeated micronization procedures. The protocol: 1 kg of each sample of ursolic acid (98% purity, Sigma Aldrich) of an average particle size of […] was micronized five times in devices having different hitting elements. The discs were cooled through a feeder opening with liquid nitrogen spraying to avoid overheating of the heat-sensitive substance.
The micronized samples were analyzed for particle size (Malvern MasterSizer 2000), while the extent of crystalline disorder of particles was quantified with isothermal calorimetry (IC TAM 3, TA instruments, USA). Data was recorded with proprietary software Digitam 4.2.
In general terms: Isothermal titration calorimetry measures the heat released or taken up as one component is titrated into another.

In the case of `C[C@H]1[C@H](C)CC[C@]2(C(=O)O)CC[C@]3(C)C(=CC[C@@H]4[C@@]5(C)CC[C@H](O)C(C)(C)[C@@H]5CC[C@]43C)[C@H]12` [ursolic acid], the “Amorphous Content” value reads like this: (MICRONIZATION-1) 3.68 %, w/w; (MICRONIZATION-2) 6.12 %, w/w; (MICRONIZATION-3) 19.23 %, w/w.

Source of the values: US20150209794A1, “MODIFIED MICRONIZATION DEVICE AND METHOD THEREOF” (OEKOMINERAL AG, priority 2014, published 2015).
